Data: ChEMBL document CHEMBL1159334, “Agastinol and agastenol, novel lignans from Agastache rugosa and their evaluation in an apoptosis inhibition assay” (J Nat Prod, 2002)
Converted amounts (≈) assume the structure as drawn.

Tested on: U-937
Test: Inhibition of etoposide-induced caspase 3 induction in human U937 cells after 7 hrs
Type: functional, cell-based
Conditions: U-937, 7 h

IC50 [µg/mL] | Structure (SMILES)
11.4 (≈ 23.8 µM) | COc1cc(/C=C2/CO[C@@H](c3ccc(O)c(OC)c3)[C@@H]2COC(=O)c2ccc(O)cc2)ccc1O [AGASTENOL]
15.2 (≈ 31.6 µM) | COc1cc(C[C@@H]2CO[C@@H](c3ccc(O)c(OC)c3)[C@@H]2COC(=O)c2ccc(O)cc2)ccc1O [AGASTINOL]
